Among the data in ChEMBL document CHEMBL1147899, “Raman, FT-IR, NMR spectroscopic data and antimicrobial activity of bis[micro2-(benzimidazol-2-yl)-2-ethanethiolato-N,S,S-chloro-palladium(II)] dimer, [(micro2-CH2CH2NHNCC6H4)PdCl]2.C2H5OH complex” (2007) are zone of inhibition values, retold here.

Assay type in all cases: functional
The subject of assay [1] is Kluyveromyces marxianus. The assay can be described thus: Antifungal activity against Kluyveromyces fragilis NRRL 2415 at 10 ug after 72 hrs by disk diffusion method. The settings on record: NRRL 2415, 72 h, read-out: IZ.
The test system of assay [2] is Hanseniaspora guilliermondii. The assay can be described thus: Antifungal activity against Hanseniaspora guilliermondii DSM 3432 at 10 ug after 72 hrs by disk diffusion method. The settings on record: DSM 3432, 72 h, read-out: IZ. (In general: A growth-free zone around the sample is the usual read-out of agar diffusion tests.)
Assay [3] has as its system Candida albicans. In words: Antifungal activity against Candida albicans ATCC 10231 at 10 ug after 72 hrs by disk diffusion method. The settings on record: ATCC 10231, 72 h, read-out: IZ.
Assay [4] deals with Debaryomyces hansenii. In words: Antifungal activity against Debaryomyces hansenii DSM 70238 at 10 ug after 72 hrs by disk diffusion method. The settings on record: DSM 70238, 72 h, read-out: IZ.
For assay [5], the system named is Rhodotorula mucilaginosa. In words: Antifungal activity against Rhodotorula rubra DSM 70403 at 10 ug after 72 hrs by disk diffusion method. The settings on record: DSM 70403, 72 h, read-out: IZ.
In assay [6] the test system is Hanseniaspora guilliermondii. In words: Antifungal activity against Hanseniaspora guilliermondii DSM 3432 at 20 ug after 72 hrs by disk diffusion method. Particulars: DSM 3432, 72 h, read-out: IZ.
For assay [7], the system named is Kluyveromyces marxianus. The assay can be described thus: Antifungal activity against Kluyveromyces fragilis NRRL 2415 at 20 ug after 72 hrs by disk diffusion method. The settings on record: NRRL 2415, 72 h, read-out: IZ.
The subject of assay [8] is Rhodotorula mucilaginosa. In words: Antifungal activity against Rhodotorula rubra DSM 70403 at 20 ug after 72 hrs by disk diffusion method. Particulars: DSM 70403, 72 h, read-out: IZ.
Assay [9] deals with Debaryomyces hansenii. The assay can be described thus: Antifungal activity against Debaryomyces hansenii DSM 70238 at 20 ug after 72 hrs by disk diffusion method. Particulars: DSM 70238, 72 h, read-out: IZ.
For assay [10], the system named is Candida albicans. The assay can be described thus: Antifungal activity against Candida albicans ATCC 10231 at 20 ug after 72 hrs by disk diffusion method. The settings on record: ATCC 10231, 72 h, read-out: IZ.
Assay [11] has as its system Mycolicibacterium smegmatis. The assay can be described thus: Antibacterial activity against Mycobacterium smegmatis CCM 2067 at 5 ug after 24 hrs by disk diffusion method. Particulars: CCM 2067, 24 h, read-out: IZ.
The test system of another assay is Pseudomonas aeruginosa. The assay can be described thus: Antibacterial activity against Pseudomonas aeruginosa ATCC 27853 at 5 ug after 24 hrs by disk diffusion method. The settings on record: ATCC 27853, 24 h, read-out: IZ.
For a further assay, the system named is Escherichia coli. In words: Antibacterial activity against Escherichia coli ATCC 11230 at 5 ug after 24 hrs by disk diffusion method. Particulars: ATCC 11230, 24 h, read-out: IZ.
A further assay relates to Micrococcus luteus. In words: Antibacterial activity against Micrococcus luteus La 2971 at 5 ug by disk diffusion method. Particulars: read-out: IZ.
Another assay deals with Proteus vulgaris. The assay can be described thus: Antibacterial activity against Proteus vulgaris ATCC 8427 at 5 ug after 24 hrs by disk diffusion method. The settings on record: ATCC 8427, 24 h, read-out: IZ.
The subject of a further assay is Listeria monocytogenes. In words: Antibacterial activity against Listeria monocytogenes ATCC 15313 at 5 ug after 24 hrs by disk diffusion method. The settings on record: ATCC 15313, 24 h, read-out: IZ.
The test system of the next assay is Staphylococcus aureus. In words: Antibacterial activity against Staphylococcus aureus ATCC 6538 at 5 ug after 24 hrs by disk diffusion method. Particulars: ATCC 6538, 24 h, read-out: IZ.
The next assay has as its system Bacillus cereus. In words: Antibacterial activity against Bacillus cereus ATCC 7064 at 5 ug after 24 hrs by disk diffusion method. The settings on record: ATCC 7064, 24 h, read-out: IZ.
The subject of a further assay is Klebsiella pneumoniae. In words: Antibacterial activity against Klebsiella pneumoniae UC57 at 5 ug after 24 hrs by disk diffusion method. The settings on record: read-out: IZ.

Turning to `Clc1ccccc1C(c1ccccc1)(c1ccccc1)n1ccnc1` [CLOTRIMAZOLE], the zone of inhibition at 10 µg/disc in the assay on Kluyveromyces marxianus [1] worked out at 18 mm; in assay [2], 22 mm; with Candida albicans [3], 15 mm; with Debaryomyces hansenii [4], 18 mm; in the assay on Rhodotorula mucilaginosa [5] it was 16 mm.

As for `CC(=O)N1CCN(c2ccc(OCC3COC(Cn4ccnc4)(c4ccc(Cl)cc4Cl)O3)cc2)CC1` (centres undefined) [KETOCONAZOLE], the zone of inhibition at 20 µg/disc in assay [6] was 24 mm; in the assay on Kluyveromyces marxianus [7], 16 mm; with Rhodotorula mucilaginosa [8], 22 mm; with Debaryomyces hansenii [9] it was 14 mm; in the assay on Candida albicans [10], 21 mm.

Turning to `CC1COc2c(N3CCN(C)CC3)c(F)cc3c(=O)c(C(=O)O)cn1c23` (centres undefined) [OFLOXACIN], the zone of inhibition at 5 µg/disc in [11] came out at 32 mm; with Pseudomonas aeruginosa, 44 mm; in the assay with Escherichia coli, 30 mm; in the assay on Micrococcus luteus, 28 mm; in the assay on Proteus vulgaris it was 28 mm; in the assay with Listeria monocytogenes, 30 mm. The zone of inhibition at 5 µg/disc in the assay with Staphylococcus aureus stood at 24 mm; in the assay on Bacillus cereus, 30 mm; in the assay on Klebsiella pneumoniae, 28 mm.
